The record followed here is article PMC10349806 (Nature Communications, 2023).

The subject of one experiment is PfCRT variant E207R. The experiment can be described thus: CQ uptake assay, oocytes expressing E207R. The experiment is classed as cell-based, Plasmodium falciparum. As to the method: (§1) Site-directed mutagenesis of PfCRT^Dd2 was performed as described using the megaprimer method with overlap extension[21],[54]. The primer pairs used are listed in Supplementary Table 6. Please note that a codon-optimized and oocyte-adapted version of PfCRT^Dd2 was used[22] (Supplementary Fig. 16). The resulting DNA fragment was cloned into the SP64T expression vector and verified by sequencing.
(§2) Oocytes were obtained as described previously. Briefly, adult (>2 years old) female X. laevis frogs (NASCO) were anesthetized in a cooled solution of ethyl 3-amino benzoate methanesulfonate (0.1%, w/v), followed by a surgical removal of parts of the ovary. The ovary lobes were carefully dissected and small pieces of oocytes were incubated in Ca^2+-free ND96 buffer (96 mM NaCl, 2 mM KCl, 1 mM MgCl2 buffered with 5 mM HEPES/NaOH, pH 7.5) supplemented with collagenase D (0.1%, w/v; Roche), BSA (0.5%, w/v), and 9 mm Na2HPO4 at 18 °C for 14-16 h while gentle shaking. After incubation, the oocytes were carefully washed several times with ND96 buffer (96 mM NaCl, 2 mM KCl, 1.8 mM CaCl2, 1 mM MgCl2 buffered with 5 mM HEPES/NaOH, pH 7.5) supplemented with 100 mg l^−1 gentamycin). Defolliculated and healthy-looking stage V-VI oocytes were manually selected for RNA microinjection. The RNA was generated as following: The codon-optimized sequences of PfCRT variants were cloned into the pSP64T expression vector. After vector linearization using the restriction endonucleases BamHI or SalI (New England Biolabs), transcription was performed using the in vitro SP6 mMessage mMachine Kit (Ambion)[34]. The obtained RNA was kept at −80 °C and diluted with nuclease-free water to a concentration of 0.6 μg μl^−1. Precision-bore glass capillary tubes (3.5-inch glass capillaries; Drummond Scientific Co.) were pulled on a vertical puller (P-87 Flaming/Brown micropipette puller, Sutter Instrument Co.), graduated, and placed on a microinjector (Nanoject II Auto-Nanoliter Injector, Drummond Scientific Co.). 50 nl of nuclease-free water alone (control oocytes) or 50 nl of 0.6 μg μl^−1 RNA were injected under stereomicroscopic control. Injected oocytes were incubated for 46–72 h at 18 °C with twice-daily buffer changes before usage in experiments.
(§3) Drug uptake assays were performed as described previously[21],[22],[24],[34]. […] The direction of radio-labeled drug transport is here from the mostly acidic extracellular solution (pH 4.5 or 6.0, as indicated) into the oocyte cytosol (pH ∼ 7.2), which corresponds to the efflux of drug from the acidic digestive vacuole (pH 5.2) into the parasite cytoplasm (pH 7.2). The topology of PfCRT in the oolemma is such that both the N- and C-terminus face the extracellular milieu[3],[22]. In the parasite, the N- and C-terminus face the lumen of the digestive vacuole. CQ uptake kinetics were performed by incubating oocytes in ND96 buffer adjusted to a pH of 4.5, 5.0, 5.5, or 6.0 and supplemented with 50 nM [^3H]CQ and one of 7 different CQ concentrations (10 µM, 50 µM, 100 µM, 200 µM, 300 µM, 400 µM, 500 µM CQ). The reaction was stopped at the 60 min time point, which is in the linear uptake range[22],[34] (Supplementary Fig. 17). For determination of the amount of drug uptake for each oocyte, the reaction medium was removed and the oocytes were washed three times with 2 ml of ice-cold ND96 buffer. Each oocyte was individually transferred to a scintillation vial containing 5% sodium dodecyl sulfate (200 μl) for lysis. The radioactivity of each sample was measured using a liquid scintillation analyzer Tri-Carb 4910 TR (PerkinElmer). Oocytes that were injected with water instead of RNA were analyzed in parallel, representing the uptake of a drug by diffusion and/or endogenous permeation pathways. The resulting value represents the “background“ level of drug accumulation in oocytes (in-depth discussion in[22]). […]

The target in the next experiment is T1, PfCRT variant D377A (Plasmodium falciparum, UniProt Q9N623, A220S/D377A/I356T/K76T/M74I/N326S/N75E/Q271E/R371I).
T1 sequence (Q9N623 1-424 M74I/N75E/K76T/A220S/Q271E/N326S/I356T/R371I/D377A): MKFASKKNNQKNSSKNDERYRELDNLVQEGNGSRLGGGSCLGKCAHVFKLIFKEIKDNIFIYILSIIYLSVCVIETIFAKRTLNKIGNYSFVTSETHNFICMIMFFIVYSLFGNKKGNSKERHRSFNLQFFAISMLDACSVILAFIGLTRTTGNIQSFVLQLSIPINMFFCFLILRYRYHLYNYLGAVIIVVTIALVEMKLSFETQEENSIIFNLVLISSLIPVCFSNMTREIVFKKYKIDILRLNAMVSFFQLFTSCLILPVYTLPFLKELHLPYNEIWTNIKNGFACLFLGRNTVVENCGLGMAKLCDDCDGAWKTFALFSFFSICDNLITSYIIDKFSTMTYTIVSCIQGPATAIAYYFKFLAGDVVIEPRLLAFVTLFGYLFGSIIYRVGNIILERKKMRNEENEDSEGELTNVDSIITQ
Put plainly: CQ uptake assay, oocytes expressing D377A. The experiment is classed as cell-based. As to the method:
as §1, §2, §3

The next experiment deals with PfCRT variant D329N. Put plainly: CQ uptake assay, oocytes expressing D329N. The experiment is classed as cell-based, Plasmodium falciparum. On the procedure: as §1, §2
Drug uptake assays were performed as described previously[21],[22],[24],[34]. […] The direction of radio-labeled drug transport is here from the mostly acidic extracellular solution (pH 4.5 or 6.0, as indicated) into the oocyte cytosol (pH ∼ 7.2), which corresponds to the efflux of drug from the acidic digestive vacuole (pH 5.2) into the parasite cytoplasm (pH 7.2). The topology of PfCRT in the oolemma is such that both the N- and C-terminus face the extracellular milieu[3],[22]. In the parasite, the N- and C-terminus face the lumen of the digestive vacuole. CQ uptake kinetics were performed by incubating oocytes in ND96 buffer adjusted to a pH of 4.5, 5.0, 5.5, or 6.0 and supplemented with 50 nM [^3H]CQ and one of 7 different CQ concentrations (10 µM, 50 µM, 100 µM, 200 µM, 300 µM, 400 µM, 500 µM CQ). The reaction was stopped at the 60 min time point, which is in the linear uptake range[22],[34] (Supplementary Fig. 17). […] The radioactivity of each sample was measured using a liquid scintillation analyzer Tri-Carb 4910 TR (PerkinElmer). Oocytes that were injected with water instead of RNA were analyzed in parallel, representing the uptake of a drug by diffusion and/or endogenous permeation pathways. […]

Where [1] appears, read: E207R, 50 µM CQ, 1 h, mean ± SEM.
Where [2] appears, read: D377A, 50 µM CQ, 1 h, mean ± SEM.
Where [3] appears, read: pH 4.5, single replicates, Fig 1d left.
[4] abbreviates: pH 6.0, single replicates, Fig 1d left.
The mark [5] stands for this setting: D329N, 50 µM CQ, 1 h, mean ± SEM.

Values joined by “and” are separate entries in the source; they are usually repeats but may differ in a detail not shown here. Equal values may be shown once.

Consider `CCN(CC)CCCC(C)Nc1ccnc2cc(Cl)ccc12` (centres unmarked) [CQ, chloroquine], for which the “Activity at pH 4.5” value with PfCRT variant E207R (setting [1]) is given as 2.23 ± 0.16 pmol h-1 oocyte-1; on PfCRT variant D377A (setting [2]), 0.62 ± 0.01 pmol h-1 oocyte-1; in the experiment with PfCRT variant D329N (setting [5]) it was 0.39 ± 0.14 pmol h-1 oocyte-1. Moreover, the “Activity at pH 6.0” value in the experiment on PfCRT variant E207R (setting [1]) is 2.69 ± 0.23 pmol h-1 oocyte-1; on PfCRT variant D377A (setting [2]), 1.44 ± 0.13 pmol h-1 oocyte-1; in the experiment on PfCRT variant D329N (setting [5]), 1.25 ± 0.32 pmol h-1 oocyte-1. Further, the R-value amounted to 0.84 ± 0.04 with PfCRT variant E207R (E207R, CQ transport at pH 4.5 / pH 6.0); 0.44 ± 0.04 at PfCRT variant D377A (D377A, CQ transport at pH 4.5 / pH 6.0); 0.32 ± 0.07 with PfCRT variant D329N (D329N, CQ transport at pH 4.5 / pH 6.0). For the same compound, the “E207R transport activity pH 4.5” value with PfCRT variant E207R (pH 4.5, individual replicates, Fig 6b) was 2.49 pmol oocyte-1 h-1 and 2.35 pmol oocyte-1 h-1 and 1.85 pmol oocyte-1 h-1. For the same compound, in the experiment on PfCRT variant E207R (pH 6.0, individual replicates, Fig 6b), the “E207R transport activity pH 6.0” value is 3.24 pmol oocyte-1 h-1 and 2.53 pmol oocyte-1 h-1 and 2.29 pmol oocyte-1 h-1. Besides, the E207RR-value with PfCRT variant E207R (ratio of activity pH 4.5 / pH 6.0) was 0.77 and 0.93 and 0.81. Also, the “D377A transport activity pH 4.5” value on PfCRT variant D377A (setting [3]) was 0.64 pmol oocyte-1 h-1 and 0.61 pmol oocyte-1 h-1. Moreover, at PfCRT variant D377A (pH 4.5 vs pH 6.0, Fig 1d left), the “D377A R-value” is 0.44 and 0.36 and 0.52. Further, the “D377A transport activity pH 6.0” value at PfCRT variant D377A (setting [4]) is 1.44 pmol oocyte-1 h-1 and 1.71 pmol oocyte-1 h-1 and 1.17 pmol oocyte-1 h-1. Also, the “D329N transport activity pH 4.5” value with PfCRT variant D329N (setting [3]) is 0.14 pmol oocyte-1 h-1 and 0.71 pmol oocyte-1 h-1 and 0.33 pmol oocyte-1 h-1. For the same compound, in the experiment with PfCRT variant D329N (setting [4]), the “D329N transport activity pH 6.0” value is 0.49 pmol oocyte-1 h-1 and 1.49 pmol oocyte-1 h-1 and 1.76 pmol oocyte-1 h-1.
